The term Tmax denotes the time from dosing to the highest level. By EC50 is commonly meant the concentration at which the effect is half-maximal. By IC50 is commonly meant the concentration needed to halve the response being measured. A word on the half-life: it is the time needed for the level to fall by half in the phase considered. What is called inhibition is the relative decrease from the control value, in per cent.

A short description of series [1]: Tmax in Cynomolgus monkey at 5 mg/kg, po measured up to 48 hrs by LC-MS/MS analysis. The conditions noted are these: in vivo. Type of series: ADME, organism-based, Macaca fascicularis.
Series [2] can be described thus: Agonist activity at dog GLP-1R expressed in HEK293 cells by cAMP accumulation assay. As to conditions: Canis lupus familiaris.
The target in series [3] is Glucagon-like peptide 1 receptor (Homo sapiens, UniProt P43220). The series can be described thus: Agonist activity at human GLP-1R expressed in HEK293 cells assessed as beta-arrestin recruitment. Type of series: functional, cell-based.
Chain of Glucagon-like peptide 1 receptor (Homo sapiens, UniProt P43220) (P43220 whole entry): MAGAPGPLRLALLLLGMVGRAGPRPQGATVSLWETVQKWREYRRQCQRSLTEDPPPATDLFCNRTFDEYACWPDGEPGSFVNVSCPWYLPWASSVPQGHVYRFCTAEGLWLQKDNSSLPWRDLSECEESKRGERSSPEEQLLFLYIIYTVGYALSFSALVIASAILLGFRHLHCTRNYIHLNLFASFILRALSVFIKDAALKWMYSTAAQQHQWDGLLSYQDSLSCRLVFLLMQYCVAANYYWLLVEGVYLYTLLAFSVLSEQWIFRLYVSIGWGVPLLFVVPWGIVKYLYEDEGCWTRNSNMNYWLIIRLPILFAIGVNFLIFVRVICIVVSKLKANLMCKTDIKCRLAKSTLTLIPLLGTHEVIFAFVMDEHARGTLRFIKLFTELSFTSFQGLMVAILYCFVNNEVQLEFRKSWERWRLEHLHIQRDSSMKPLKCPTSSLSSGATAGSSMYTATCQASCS
Series [4] deals with Voltage-gated inwardly rectifying potassium channel KCNH2 (Homo sapiens, UniProt Q12809). The experiment in a line: Inhibition of human ERG by whole-cell patch clamp technique. Type of series: toxicity.
Chain of Voltage-gated inwardly rectifying potassium channel KCNH2 (Q12809 whole entry): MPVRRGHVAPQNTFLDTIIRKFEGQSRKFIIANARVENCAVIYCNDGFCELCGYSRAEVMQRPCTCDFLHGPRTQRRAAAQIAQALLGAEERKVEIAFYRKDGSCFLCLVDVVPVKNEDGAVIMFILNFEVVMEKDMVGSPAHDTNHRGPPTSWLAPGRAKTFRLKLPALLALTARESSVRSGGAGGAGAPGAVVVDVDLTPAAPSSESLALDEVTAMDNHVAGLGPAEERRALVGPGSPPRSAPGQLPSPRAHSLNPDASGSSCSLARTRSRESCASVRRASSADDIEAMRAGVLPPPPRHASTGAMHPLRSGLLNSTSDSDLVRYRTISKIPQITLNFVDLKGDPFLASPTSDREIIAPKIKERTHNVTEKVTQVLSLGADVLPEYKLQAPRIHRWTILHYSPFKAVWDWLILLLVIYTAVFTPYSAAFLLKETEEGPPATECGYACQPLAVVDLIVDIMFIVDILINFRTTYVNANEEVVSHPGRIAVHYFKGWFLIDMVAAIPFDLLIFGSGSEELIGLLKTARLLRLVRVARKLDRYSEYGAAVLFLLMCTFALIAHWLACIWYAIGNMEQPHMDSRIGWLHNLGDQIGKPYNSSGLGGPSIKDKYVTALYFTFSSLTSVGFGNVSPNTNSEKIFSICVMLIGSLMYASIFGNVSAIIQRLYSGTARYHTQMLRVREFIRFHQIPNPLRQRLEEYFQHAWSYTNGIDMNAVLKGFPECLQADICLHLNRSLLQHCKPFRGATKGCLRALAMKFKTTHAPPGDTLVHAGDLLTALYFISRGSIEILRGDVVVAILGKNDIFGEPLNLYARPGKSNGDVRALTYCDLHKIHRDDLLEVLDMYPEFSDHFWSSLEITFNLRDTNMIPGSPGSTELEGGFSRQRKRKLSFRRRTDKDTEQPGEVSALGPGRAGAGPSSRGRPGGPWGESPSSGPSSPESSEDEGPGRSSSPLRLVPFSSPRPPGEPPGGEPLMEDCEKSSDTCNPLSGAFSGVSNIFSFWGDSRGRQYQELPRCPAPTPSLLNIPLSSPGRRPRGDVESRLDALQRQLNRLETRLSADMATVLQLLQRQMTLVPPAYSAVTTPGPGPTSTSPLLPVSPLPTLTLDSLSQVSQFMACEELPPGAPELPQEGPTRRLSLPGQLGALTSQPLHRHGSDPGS
The target in series [5] is T1, Glucagon-like peptide 1 receptor (Mus musculus, UniProt O35659).
T1 sequence (O35659 whole entry): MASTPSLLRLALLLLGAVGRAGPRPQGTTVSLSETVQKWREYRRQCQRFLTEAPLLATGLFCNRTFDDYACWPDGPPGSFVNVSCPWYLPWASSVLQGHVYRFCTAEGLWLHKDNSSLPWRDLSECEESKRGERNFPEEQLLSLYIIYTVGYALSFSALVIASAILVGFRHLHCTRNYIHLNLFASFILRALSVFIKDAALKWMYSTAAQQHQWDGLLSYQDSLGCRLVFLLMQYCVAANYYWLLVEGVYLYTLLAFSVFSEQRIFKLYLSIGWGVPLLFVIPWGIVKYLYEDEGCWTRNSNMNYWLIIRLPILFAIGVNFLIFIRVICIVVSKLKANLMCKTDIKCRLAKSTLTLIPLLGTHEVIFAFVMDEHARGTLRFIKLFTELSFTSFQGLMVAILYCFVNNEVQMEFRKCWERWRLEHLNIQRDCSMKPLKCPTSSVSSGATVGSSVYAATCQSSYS
The series can be described thus: Agonist activity at mouse GLP-1R expressed in HEK293 cells by cAMP accumulation assay. Type of series: functional, cell-based.

Another series addresses Cytochrome P450 2D6 (Homo sapiens, UniProt P10635). The experiment in a line: Inhibition of CYP2D6 in human liver microsomes incubated for 20 mins in presence of NADPH by LC-MS/MS analysis. Type of series: ADME, Microsome. (Liver microsomes are a subcellular fraction often used to study metabolism.)
Series [6] in a line: Half life in Cynomolgus monkey at 5 mg/kg, po measured up to 48 hrs by LC-MS/MS analysis. Type of series: ADME, organism-based, Macaca fascicularis. The conditions noted are these: in vivo.
A further series concerns the target Cytochrome P450 2C9 (Homo sapiens, UniProt P11712). The series can be described thus: Inhibition of CYP2C9 in human liver microsomes incubated for 10 mins in presence of NADPH by LC-MS/MS analysis. Type of series: ADME, Microsome.
Series [7] concerns the target LCK (tyrosine-protein kinase Lck) (Homo sapiens, UniProt P06239). The series can be described thus: Inhibition of LCK (unknown origin) at 10 uM relative to control. Type of series: toxicity.
The next series deals with T2, Cytochrome P450 1A2 (Homo sapiens, UniProt P05177).
T2 sequence (P05177 whole entry): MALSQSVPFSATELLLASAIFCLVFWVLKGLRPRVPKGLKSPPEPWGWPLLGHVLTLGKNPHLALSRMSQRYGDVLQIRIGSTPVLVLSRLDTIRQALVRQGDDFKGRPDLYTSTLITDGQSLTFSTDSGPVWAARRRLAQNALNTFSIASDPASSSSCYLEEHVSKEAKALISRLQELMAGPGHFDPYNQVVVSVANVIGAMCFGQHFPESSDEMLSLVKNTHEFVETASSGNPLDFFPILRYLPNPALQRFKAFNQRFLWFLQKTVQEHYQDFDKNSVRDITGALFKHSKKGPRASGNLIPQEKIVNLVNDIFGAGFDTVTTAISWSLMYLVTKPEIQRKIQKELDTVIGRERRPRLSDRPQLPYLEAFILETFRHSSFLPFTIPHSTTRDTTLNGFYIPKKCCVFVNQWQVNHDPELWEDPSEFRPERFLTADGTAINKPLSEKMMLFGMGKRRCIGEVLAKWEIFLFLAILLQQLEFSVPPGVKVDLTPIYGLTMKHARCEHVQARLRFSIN
The series can be described thus: Inhibition of CYP1A2 in human liver microsomes incubated for 10 mins in presence of NADPH by LC-MS/MS analysis. Type of series: ADME, Microsome.

Another series concerns the target Cytochrome P450 3A4 (Homo sapiens, UniProt P08684). The series can be described thus: Inhibition of CYP3A4 in human liver microsomes using testosterone as substrate incubated for 5 mins in presence of NADPH by LC-MS/MS analysis. Type of series: ADME, Microsome.

Chain of Cytochrome P450 2C9 (P11712 whole entry): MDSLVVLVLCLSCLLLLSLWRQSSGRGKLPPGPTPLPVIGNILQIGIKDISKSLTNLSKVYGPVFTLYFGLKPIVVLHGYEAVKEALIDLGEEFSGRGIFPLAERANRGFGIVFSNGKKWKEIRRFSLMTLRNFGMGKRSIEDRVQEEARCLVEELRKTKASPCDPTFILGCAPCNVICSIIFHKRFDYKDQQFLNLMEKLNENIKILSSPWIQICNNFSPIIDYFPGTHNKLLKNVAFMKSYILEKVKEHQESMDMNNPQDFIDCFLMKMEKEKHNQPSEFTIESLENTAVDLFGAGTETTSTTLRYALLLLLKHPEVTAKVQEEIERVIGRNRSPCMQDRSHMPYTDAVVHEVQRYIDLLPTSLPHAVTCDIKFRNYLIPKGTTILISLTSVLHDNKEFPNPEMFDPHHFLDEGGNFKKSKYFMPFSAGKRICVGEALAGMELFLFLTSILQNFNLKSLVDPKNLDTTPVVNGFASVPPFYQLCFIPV
Chain of LCK (tyrosine-protein kinase Lck) (P06239 whole entry): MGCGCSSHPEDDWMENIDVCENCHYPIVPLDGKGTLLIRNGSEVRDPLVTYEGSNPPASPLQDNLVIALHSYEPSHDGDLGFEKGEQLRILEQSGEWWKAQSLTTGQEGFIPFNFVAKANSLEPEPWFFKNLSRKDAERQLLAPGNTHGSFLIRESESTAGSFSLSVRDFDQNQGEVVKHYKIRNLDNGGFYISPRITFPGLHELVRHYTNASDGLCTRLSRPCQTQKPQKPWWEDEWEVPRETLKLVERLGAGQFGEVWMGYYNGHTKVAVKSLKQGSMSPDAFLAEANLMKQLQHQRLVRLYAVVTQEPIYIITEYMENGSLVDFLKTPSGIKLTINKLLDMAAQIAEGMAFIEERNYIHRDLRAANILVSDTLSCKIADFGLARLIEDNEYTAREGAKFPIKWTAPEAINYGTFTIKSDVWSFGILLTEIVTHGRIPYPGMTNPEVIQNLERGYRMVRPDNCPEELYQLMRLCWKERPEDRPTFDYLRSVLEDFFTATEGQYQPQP
Chain of Cytochrome P450 2D6 (P10635 whole entry): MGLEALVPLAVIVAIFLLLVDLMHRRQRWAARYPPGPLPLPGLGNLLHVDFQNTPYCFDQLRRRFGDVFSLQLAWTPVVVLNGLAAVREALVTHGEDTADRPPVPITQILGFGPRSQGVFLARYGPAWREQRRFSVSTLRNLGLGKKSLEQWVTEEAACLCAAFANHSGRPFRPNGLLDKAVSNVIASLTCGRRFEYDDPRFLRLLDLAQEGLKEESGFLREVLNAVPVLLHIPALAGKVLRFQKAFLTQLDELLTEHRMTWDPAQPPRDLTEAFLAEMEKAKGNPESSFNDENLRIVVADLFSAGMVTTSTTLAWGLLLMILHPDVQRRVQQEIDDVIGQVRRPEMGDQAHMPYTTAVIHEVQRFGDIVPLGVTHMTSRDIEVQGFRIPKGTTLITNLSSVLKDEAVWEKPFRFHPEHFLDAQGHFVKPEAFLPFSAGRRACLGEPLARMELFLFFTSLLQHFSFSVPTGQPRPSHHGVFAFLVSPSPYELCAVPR
Chain of Cytochrome P450 3A4 (P08684 whole entry): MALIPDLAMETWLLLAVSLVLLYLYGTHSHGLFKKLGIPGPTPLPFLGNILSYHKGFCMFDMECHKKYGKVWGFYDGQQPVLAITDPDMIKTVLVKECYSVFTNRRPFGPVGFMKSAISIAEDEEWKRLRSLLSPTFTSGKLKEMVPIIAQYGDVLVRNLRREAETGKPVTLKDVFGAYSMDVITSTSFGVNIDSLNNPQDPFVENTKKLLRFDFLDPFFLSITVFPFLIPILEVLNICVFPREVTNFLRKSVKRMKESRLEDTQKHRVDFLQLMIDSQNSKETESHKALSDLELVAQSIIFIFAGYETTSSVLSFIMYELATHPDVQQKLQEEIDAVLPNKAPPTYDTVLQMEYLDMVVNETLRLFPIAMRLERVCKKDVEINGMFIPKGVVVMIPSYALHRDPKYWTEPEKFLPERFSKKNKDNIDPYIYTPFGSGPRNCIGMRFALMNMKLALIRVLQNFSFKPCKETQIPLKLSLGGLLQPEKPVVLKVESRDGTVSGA

With `O=C(O)c1ccc2nc(Cc3ccc(-c4ccc(F)c(OCc5ccc(Cl)c6ccoc56)n4)cc3F)n(C[C@@H]3CCO3)c2c1`, the Tmax in [1] was 2.5 h. For the same compound, the concentration giving a half-maximal response (EC50) in series [2] is > 30 µM; in series [3], 0.118 µM; in series [5], > 30 µM. In addition, the half-maximal inhibitory concentration (IC50) (in [4]; at Cytochrome P450 2D6; at Cytochrome P450 2C9; at Cytochrome P450 1A2; at Cytochrome P450 3A4) was > 30 µM in each case. This compound had a half-life in [6] of 10.4 h. In series [7], this compound yielded an inhibition at 10 µM of 87.5%.

For the origin of these results see ChEMBL document CHEMBL6134892, “Discovery and Evaluation of DA-302168S as an Efficacious Oral Small-Molecule Glucagon-Like Peptide-1 Receptor Agonist” (J Med Chem, 2025).
